The experiment deals with SARS-CoV-2 3CLpro (Severe acute respiratory syndrome coronavirus 2, UniProt P0DTD1). Nature of the experiment: biochemical. In kind it is biochemical. More on the design: Replicate_1 / Replicate_2 / mean / mean (LOPAC_screen_w_protease): unit not given here. To be noted: for inhibition at 5 µM: 4 h; for mean (LOPAC screen with protease) / Replicate_1 (LOPAC screen with protease) / Replicate_2 (LOPAC screen with protease): primary screen at 5 µM.

The mark [1] stands for this setting: sheet LOPAC_screen_w_protease, primary screen of LOPAC1280 at 5 µM with protease, mean of the two replicates.
[2] abbreviates: sheet LOPAC_screen_w_protease, primary screen of LOPAC1280 at 5 µM with protease, replicate 1.
The mark [3] stands for this setting: sheet LOPAC_screen_w_protease, primary screen of LOPAC1280 at 5 µM with protease, replicate 2.
[4] abbreviates: sheet LOPAC_screen_w_protease, LOPAC1280 primary screen at 5 µM, with protease, mean of the two replicates.
Setting [5] is: sheet LOPAC_screen_w_protease, LOPAC1280 primary screen at 5 µM, with protease, replicate 1.
Setting [6] is: sheet LOPAC_screen_w_protease, LOPAC1280 primary screen at 5 µM, with protease, replicate 2.
[7] abbreviates: sheet LOPAC_screen_w_protease, primary screen with protease, compound at 5 µM, mean of two replicates.
Setting [8] is: sheet LOPAC_screen_w_protease, primary screen with protease, compound at 5 µM, replicate 1.
Where [9] appears, read: sheet LOPAC_screen_w_protease, primary screen with protease, compound at 5 µM, replicate 2.
Setting [10] is: sheet LOPAC_screen_w_protease, primary screen with protease, 5 µM, mean of two replicates, read-out: mean.
Setting [11] is: sheet LOPAC_screen_w_protease, primary screen with protease, 5 µM, replicate 1, read-out: Replicate_1.
Where [12] appears, read: sheet LOPAC_screen_w_protease, primary screen with protease, 5 µM, replicate 2, read-out: Replicate_2.
Setting [13] is: sheet LOPAC_screen_w_protease, primary screen with protease, 5 µM, mean of two replicates.
Setting [14] is: sheet LOPAC_screen_w_protease, primary screen with protease, 5 µM, replicate 1.
Setting [15] is: sheet LOPAC_screen_w_protease, primary screen with protease, 5 µM, replicate 2.
Where [16] appears, read: LOPAC1280 primary screen with protease, 5 µM compound, mean of two replicates.
The mark [17] stands for this setting: LOPAC1280 primary screen with protease, 5 µM compound, replicate 1.
Setting [18] is: LOPAC1280 primary screen with protease, 5 µM compound, replicate 2.
Setting [19] is: sheet LOPAC_screen_w_protease, mean of two replicates.
Where [20] appears, read: sheet LOPAC_screen_w_protease, replicate 1.
The mark [21] stands for this setting: sheet LOPAC_screen_w_protease, replicate 2.
Setting [22] is: sheet LOPAC_screen_w_protease, LOPAC1280 at 5 µM, mean of two replicates, read-out: mean.
Setting [23] is: sheet LOPAC_screen_w_protease, LOPAC1280 at 5 µM, replicate 1, read-out: Replicate_1.
[24] abbreviates: sheet LOPAC_screen_w_protease, LOPAC1280 at 5 µM, replicate 2, read-out: Replicate_2.
Where [25] appears, read: sheet LOPAC_screen_w_protease, LOPAC1280 primary screen with protease, 5 µM compound, mean of the two replicates.
The mark [26] stands for this setting: sheet LOPAC_screen_w_protease, LOPAC1280 primary screen with protease, 5 µM compound, replicate 1.
The mark [27] stands for this setting: sheet LOPAC_screen_w_protease, LOPAC1280 primary screen with protease, 5 µM compound, replicate 2.
The mark [28] stands for this setting: sheet LOPAC_screen_w_protease, LOPAC1280 primary screen with protease, 5 µM compound, mean of the two replicates, read-out: mean.
Setting [29] is: sheet LOPAC_screen_w_protease, LOPAC1280 primary screen with protease, 5 µM compound, replicate 1, read-out: Replicate_1.
The mark [30] stands for this setting: sheet LOPAC_screen_w_protease, LOPAC1280 primary screen with protease, 5 µM compound, replicate 2, read-out: Replicate_2.

Where a name gives a salt, the structure may show the parent alone. Read-outs that look alike come from different tables or passages of the source.

In the case of `CC(O)C(C)OC(=O)[C@@H]1C[C@@H]2c3cccc4c3c(cn4C(C)C)C[C@H]2N(C)C1.O=C(O)/C=C\C(=O)O` (some centres unmarked) [LY-53,857 maleate], the mean under setting [1] is reported as 3.324. The Replicate_1 under setting [2] stood at 1.754. In addition, under setting [3], the Replicate_2 is recorded as 4.894.
For the molecule `CCCCCCCCCC(=O)NC(CN1CCOCC1)[C@H](O)c1ccccc1.Cl` (mixture of isomers), the mean under setting [4] came to 0.5952. Besides, the Replicate_1 under setting [5] worked out at 1.232. Under setting [6], this molecule had a Replicate_2 of -0.042.
With `CCCCCCCCCCCCCCCC(=O)OC(CC(=O)O)C[N+](C)(C)C.[Cl-]` (racemic) [Palmitoyl-DL-Carnitine chloride], the mean under setting [7] was determined as 2.684. Under setting [8], this molecule came in with a Replicate_1 of 2.378. The Replicate_2 under setting [9] came to 2.9894.
Regarding `CCCC(=O)NCCc1c2n(c3ccc(OC)cc13)Cc1ccccc1-2` [IIK7], the mean under setting [1] worked out at 3.902. This molecule came in with a Replicate_1 under setting [2] of 5.727. Further, under setting [3], the Replicate_2 came out at 2.078.
In the case of `Cc1scc2c1N(C(=O)CN1CCN(C)CC1)c1ccccc1NC2=O` [Telenzepine dihydrochloride], the inhibition at 5 µM was 0.413% under setting [10], -0.915% under setting [11] and 1.74% under setting [12].
Consider `CC(C)C[C@H](NP(=O)([O-])O[C@H]1O[C@H](C)[C@@H](O)[C@H](O)[C@@H]1O)C(=O)N[C@@H](Cc1c[nH]c2ccccc12)C(=O)[O-].[Na+].[Na+]` [Phosphoramidon disodium], for which the mean under setting [13] came out at 0.1697. Under setting [14], this molecule gave a Replicate_1 of 0.5227. Further, the Replicate_2 under setting [15] was -0.1832.
Turning to `O=C(O)c1ccccc1Nc1cccc(OCc2ccc3ccccc3n2)c1` [SR 2640], the inhibition at 5 µM (LOPAC1280 primary screen with protease, 5 µM compound, replicate 1, read-out: Replicate_1 (LOPAC_screen_w_protease)) came out at 1.95% and the inhibition at 5 µM (LOPAC1280 primary screen with protease, 5 µM compound, replicate 2, read-out: Replicate_2 (LOPAC_screen_w_protease)) was found to be 1.04%. Further, the “mean (LOPAC_screen_w_protease)” value under setting [16] is reported as 1.4964.
For the molecule `CCCCC/C=C\C[C@@H](O)/C=C/c1cccc(C[C@@H](O)CCCCO)n1` [U-75302], the “mean (LOPAC_screen_w_protease)” value under setting [16] came out at 1.3528. Also, under setting [17], the “Replicate_1 (LOPAC_screen_w_protease)” value is on record as 0.07831. Moreover, the “Replicate_2 (LOPAC_screen_w_protease)” value under setting [18] amounted to 2.627.
Turning to `Br.CCCN1CCc2cc(O)cc3c2[C@H]1Cc1ccc(O)c(O)c1-3`, the “mean (LOPAC screen with protease)” value under setting [19] stood at 94.9167. The “Replicate_1 (LOPAC screen with protease)” value under setting [20] is reported as 94.651. Besides, the “Replicate_2 (LOPAC screen with protease)” value under setting [21] came out at 95.1824.
As for `Cc1oncc1C(=O)Nc1ccc(C(F)(F)F)cc1` [Leflunomide], the inhibition at 5 µM is, setting by setting: under setting [22], 1.27%; under setting [23], 0.0888%; under setting [24], 2.44%.
For `COc1ccc2cc([C@H](C)C(=O)[O-])ccc2c1.[Na+]` [(-)-Naproxen sodium], the Replicate_2 is listed as -1.573 and the mean worked out at 0.4756.
As for `C=C(C)[C@H]1CC=C(C(=O)O)CC1` [(-)-Perillic acid], the mean under setting [13] is listed as -0.8057. The molecule also registered a Replicate_1 under setting [14] of 1.127. The Replicate_2 under setting [15] is -2.738.
With `O=C(O)c1cc(O)c2ccc(Cl)cc2n1` [7-Chlorokynurenic acid], the inhibition at 5 µM was determined as 3.48% (sheet LOPAC_screen_w_protease, primary screen of LOPAC1280 at 5 µM with protease, mean of the two replicates, read-out: mean); 3.97% (sheet LOPAC_screen_w_protease, primary screen of LOPAC1280 at 5 µM with protease, replicate 1, read-out: Replicate_1); 2.98% (sheet LOPAC_screen_w_protease, primary screen of LOPAC1280 at 5 µM with protease, replicate 2, read-out: Replicate_2).
Regarding `C#CCN1C(C)=C(C(=O)OC)C(c2cccc([N+](=O)[O-])c2)C(C(=O)OCC)=C1C` (centres unmarked) [MRS 1845], under setting [25], the mean was determined as 4.379. The Replicate_1 under setting [26] worked out at 3.994. Besides, the Replicate_2 under setting [27] worked out at 4.765.
`CCN(CC)CC#CCOC(=O)C(O)(c1ccccc1)C1CCCCC1` (centres unmarked) [Oxybutynin Chloride]: the inhibition at 5 µM was 4.78% under setting [28], 4.91% under setting [29] and 4.65% under setting [30].
`Cn1c(=O)c2[nH]c(-c3ccc(S(=O)(=O)O)cc3)nc2n(C)c1=O` [8-(p-Sulfophenyl)theophylline] gave a mean under setting [7] of 3.141. Further, under setting [8], the Replicate_1 came to 2.844. The molecule also registered a Replicate_2 under setting [9] of 3.439.
Take `CC(C)COCC(CN(Cc1ccccc1)c1ccccc1)N1CCCC1` (centres unmarked) [Bepridil hydrochloride]: the inhibition at 5 µM (read-out: Replicate_1 (LOPAC screen with protease)) is 8.81%, the inhibition at 5 µM (read-out: Replicate_2 (LOPAC screen with protease)) is 7.08% and the inhibition at 5 µM (read-out: mean (LOPAC screen with protease)) came to 7.94%.
`O=C(Nc1cccc(C(=O)Nc2ccc(S(=O)(=O)O)c3cc(S(=O)(=O)O)cc(S(=O)(=O)O)c23)c1)Nc1cccc(C(=O)Nc2ccc(S(=O)(=O)O)c3cc(S(=O)(=O)O)cc(S(=O)(=O)O)c23)c1` [NF 023, reference compound] gave a mean under setting [25] of 6.11. The molecule further came in with a Replicate_1 under setting [26] of 5.845. The Replicate_2 under setting [27] is given as 6.375.
As for `CNCCNS(=O)(=O)c1cccc2cnccc12.Cl.Cl` [H-8 dihydrochloride], the “mean (LOPAC screen with protease)” value under setting [19] is 10.4369. Under setting [20], the “Replicate_1 (LOPAC screen with protease)” value is listed as 9.7701. Under setting [21], the “Replicate_2 (LOPAC screen with protease)” value worked out at 11.1038.
`CCN(CC)C(C)C(=O)N1c2ccccc2Sc2ccccc21.Cl` (centres unmarked) showed a mean under setting [7] of 2.78. The Replicate_1 under setting [8] was found to be 5.208. Moreover, the Replicate_2 under setting [9] is listed as 0.3523.
Take `O=C(O)/C=C\C(=O)O.O=[N+]([O-])c1ccc2nc(N3CCNCC3)ccc2c1` [Quipazine, 6-nitro-, maleate]: the mean under setting [4] turned out to be 0.7082. Further, the Replicate_1 under setting [5] is 1.452. The molecule also had a Replicate_2 under setting [6] of -0.03606.
`CCCN1CCc2cccc3c2[C@H]1Cc1ccc(O)c(O)c1-3.Cl` [R(-)-Propylnorapomorphine hydrochloride]: the “mean (LOPAC screen with protease)” value under setting [19] is 100.867. Also, the “Replicate_1 (LOPAC screen with protease)” value under setting [20] turned out to be 101.086. Also, the “Replicate_2 (LOPAC screen with protease)” value under setting [21] amounted to 100.647.
Consider `NC(=O)C(=O)O` [Sodium Oxamate], for which the inhibition at 5 µM runs as follows: under setting [28], 4.58%; under setting [29], 4.67%; under setting [30], 4.48%.
Regarding `Br.CCCN1CC[C@@H]2c3cc(O)ccc3CC[C@@H]21` (racemic) [cis-(±)-8-OH-PBZI hydrobromide], the mean under setting [1] is recorded as 4.0009. This molecule also displayed a Replicate_1 under setting [2] of 4.218. Further, the Replicate_2 under setting [3] is listed as 3.784.
For `CC1CCCC=CC2CC(O)CC2C(O)C=CC(=O)O1` (centres unmarked), the “mean (LOPAC_screen_w_protease)” value under setting [16] is on record as 1.348. The “Replicate_1 (LOPAC_screen_w_protease)” value under setting [17] came out at 0.7493. Moreover, the “Replicate_2 (LOPAC_screen_w_protease)” value under setting [18] was 1.9466.
As for `N[C@H](C(=O)O)c1cc(O)no1` (racemic) [(±)-Ibotenic acid], the mean under setting [4] amounted to 0.7432. For the same molecule, the Replicate_1 under setting [5] came out at 1.025. Besides, the Replicate_2 under setting [6] is listed as 0.4611.
For the molecule `CC(N/C(=N\C#N)Nc1ccncc1)C(C)(C)C` (centres unmarked) [Pinacidil], the inhibition at 5 µM is, setting by setting: under setting [22], 1.05%; under setting [23], 2.49%; under setting [24], -0.383%.
`Cc1c2ccncc2c(C)c2c1[nH]c1ccccc12` [Ellipticine]: the inhibition at 5 µM reads like this: (sheet LOPAC_screen_w_protease, primary screen with protease, mean of two replicates, read-out: mean) 2.32%; (sheet LOPAC_screen_w_protease, primary screen with protease, replicate 1, read-out: Replicate_1) 4.78%; (sheet LOPAC_screen_w_protease, primary screen with protease, replicate 2, read-out: Replicate_2) -0.147%.
Turning to `O=C1N(c2ccccc2)c2ccccc2C1(Cc1ccncc1)Cc1ccncc1` [Linopirdine], the inhibition at 5 µM by setting is: under setting [28], 4.8%; under setting [29], 4.31%; under setting [30], 5.29%.
In the case of `COC(=O)[C@@H]1[C@H]2C[C@H]3c4[nH]c5ccccc5c4CCN3C[C@@H]2CC[C@@H]1O` [Yohimbine hydrochloride], the inhibition at 5 µM by setting is: under setting [10], 0.269%; under setting [11], -0.997%; under setting [12], 1.53%.

The record behind these values is article PMC7587356, “High-Throughput Screening for Inhibitors of the SARS-CoV-2 Protease Using a FRET-Biosensor” (Molecules, 2020).
